Measurements from patent publication US20220388972A1, “CHROMAN-4-ONE DERIVATIVES FOR THE TREATMENT AND PROPHYLAXIS OF HEPATITIS B VIRUS INFECTION” (Hoffmann-La Roche Inc., priority 2018, published 2022).

system: HBV cccDNA (HBeAg as surrogate marker) in HepDES19 cells; experiment: Engineered HepDES19 primary screen assay (HBeAg as surrogate marker for cccDNA); assay type: cell-based; details: Hepatitis B virus, HepDES19, 120 h
Description: The assay was employed to screen for cccDNA inhibitors. HepDES19 is a cccDNA-producing cell line. In this cell line, HBeAg in the cell culture supernatant as surrogate marker, as HBeAg production depends on cccDNA level and activity. HepDES19 is an engineered cell line which contains a 1.1 unit length HBV genome, and pgRNA transcription from the transgene is controlled by Tetracycline (Tet). In the absence of Tet, pgRNA transcription will be induced, but HBV e antigen (HBeAg) could not be produced from this pgRNA due to very short leader sequence before the HBeAg start codon and the start codon is disrupted. Only after cccDNA is formed, the missing leader sequence and start codon mutation would be restored from the 3′-terminal redundancy of pgRNA, and then HBeAg could be synthesized. Therefore, HBeAg could be used as a surrogate marker for cccDNA (Zhou, T. et al., Antiviral Res. (2006), 72 (2), 116-124; Guo, H. et al., J. Virol. (2007), 81 (22), 12472-12484).
HepDES19 cells were seeded at 2×10^6 cells per T150 flask and cultured with the culture medium (Dulbecco's Modified Eagle Medium: Nutrient Mixture F-12 [DMEM-F12, Gibco Cat. 11320-82], 10% Fetal Bovine Serum [FBS, Clontech Cat. 631101], 0.1 mM Non-Essential Amino Acids Solution [NEAA, Gibco Cat. 11140-050], 50 μg/mL Penicillin-Streptomycin [PS, Invitrogen Cat. 15140-163], 500 μg/mL Geneticin [G418, Invitrogen Cat. 10131-027]) containing 3 μg/mL Tet (Sigma, Cat. 87128) for 5 days. Cells were then seeded at 4×10^6 cells per T150 in the same culture medium as described above in the absence of Tet for 8 days. Cells were then harvested and frozen at density of 2×10^6 cells per mL. For compound testing, the frozen cells were thawed and seeded into 96-well plates at a density of 6×10^4 cells per well. At 24 hours after seeding, half log serial dilutions of compounds made with Dimethyl sulfoxide (DMSO, Sigma, Cat. D2650) were further diluted with the same culture medium as described above before they were added to the cells to reach desired final compound concentrations and 1% DMSO concentration. Plates were then incubated at 37° C. for another 5 days before measurement of HBeAg level and cell viability. Intracellular HBeAg level were measured with enzyme-linked immunosorbent assay (ELISA) kit (Shanghai Kehua Diagnostic Medical Products Co., Ltd). Cell viability was assessed using Cell Counting Kit-8 (DonJindo, Cat. CK04-20). IC50 values were derived from the dose-response curve using 4 parameters logistic curve fit method.
The compounds of the present invention were tested for their capacity to inhibit extracellular HBeAg level as described herein.

Question: Which IC50 does the source give for O=C(O)COCCCOc1cc(C(F)(F)F)ccc1C1CC(=O)c2cccc(Cl)c2O1 (centres unmarked) [Example 23, 2-[3-[2-(8-chloro-4-oxo-chroman-2-yl)-5-(trifluoromethyl)phenoxy]propoxy]acetic Acid] here?
Answer: The IC50 was 1.56 µM.

Question: With O=C1CC(c2ccc(C(F)(F)F)cc2OCCOC2CC(C(=O)O)C2)Oc2c(Cl)cccc21 (centres unmarked) [Example 20, 3-[2-[2-(8-chloro-4-oxo-chroman-2-yl)-5-(trifluoromethyl)phenoxy]ethoxy]cyclobutanecarboxylic Acid] as the compound, how does the IC50 read?
Answer: Its IC50 is 0.01 µM.

Question: Which IC50 does the source give for CC(C)(COc1cc(C(F)(F)F)ccc1C1CC(=O)c2cccc(Cl)c2O1)C(=O)O (centres unmarked) [Example 19, 3-[2-(8-chloro-4-oxo-chroman-2-yl)-5-(trifluoromethyl)phenoxy]-2,2-dimethyl-propanoic Acid] here?
Answer: Its IC50 is 0.26 µM.

Question: COc1cc(Cl)c2c(c1)C(=O)CC(c1ccc(C(F)(F)F)cc1OCCC(=O)O)O2 (centres unmarked) [Example 5, 3-[2-(8-chloro-6-methoxy-4-oxo-chroman-2-yl)-5-(trifluoromethyl)phenoxy]propanoic Acid] was tested. Which IC50 did it give?
Answer: Its IC50 is 3.06 µM.

Question: Which IC50 does the source give for O=C(O)C(=O)NCCOc1cc(Cl)ccc1C1CC(=O)c2cccc(Cl)c2O1 (centres unmarked) [Example 36, 2-[2-[5-chloro-2-(8-chloro-4-oxo-chroman-2-yl)phenoxy]ethylamino]-2-oxo-acetic Acid] here?
Answer: The IC50 was 12.9 µM.

Question: For O=C1CC(c2ccc(Br)cc2O[C@H]2C[C@@H](C(=O)O)C2)Oc2c(Cl)cccc21 (stereo partly drawn) [Example 37, cis-3-[5-bromo-2-(8-chloro-4-oxo-chroman-2-yl)phenoxy]cyclobutanecarboxylic Acid], which IC50 is on record?
Answer: The IC50 was 0.67 µM.

Question: CCNS(=O)(=O)N[C@H](COc1cc(C(F)(F)F)ccc1[C@H]1CC(=O)c2cccc(Cl)c2O1)C(=O)O [Example 31-B, (2R)-3-[2-[(2R)-8-chloro-4-oxo-chroman-2-yl]-5-(trifluoromethyl)phenoxy]-2-(ethylsulfamoylamino)propanoic Acid] was tested. Which IC50 did it give?
Answer: Its IC50 is 10.9 µM.

Question: COc1cc(C2CC(=O)c3cccc(Cl)c3O2)c(OCCC(=O)O)cc1Br (centres unmarked) [Example 8, 3-[5-bromo-2-(8-chloro-4-oxo-chroman-2-yl)-4-methoxy-phenoxy]propanoic Acid] was tested. Which IC50 did it give?
Answer: The IC50 was 11.3 µM.

Question: Cc1cc(C2CC(=O)c3cccc(Cl)c3O2)c(OCCC(=O)O)cc1Cl (centres unmarked) [Example 14, 3-[5-chloro-2-(8-chloro-4-oxo-chroman-2-yl)-4-methyl-phenoxy]propanoic Acid] was tested. Which IC50 did it give?
Answer: Its IC50 is 1.05 µM.

Question: Which IC50 does the source give for Cc1cc(C2CC(=O)c3cccc(Cl)c3O2)c(OCCC(=O)O)cc1Br (centres unmarked) [Example 7, 3-[5-bromo-2-(8-chloro-4-oxo-chroman-2-yl)-4-methyl-phenoxy]propanoic Acid] here?
Answer: The IC50 was 9.41 µM.

Question: With CCS(=O)(=O)N[C@@H](COc1cc(C(F)(F)F)ccc1C1CC(=O)c2cccc(Cl)c2O1)C(=O)O (stereo partly drawn) [Example 29, (2S)-3-[2-(8-chloro-4-oxo-chroman-2-yl)-5-(trifluoromethyl)phenoxy]-2-(ethylsulfonylamino)propanoic Acid] as the compound, how does the IC50 read?
Answer: The IC50 was 1.91 µM.

Question: How did the IC50 turn out when O=C(O)CCOc1cc(Br)ccc1[C@H]1CC(=O)c2cccc(Cl)c2O1 [Example 16-B, 3-[5-bromo-2-[(2R)-8-chloro-4-oxo-chroman-2-yl]phenoxy]propanoic Acid] was run?
Answer: Its IC50 is 0.48 µM.

Question: Which IC50 does the source give for O=C1CC(c2ccc(C(F)(F)F)cc2OCCCO)Oc2c1ccc(F)c2Cl (centres unmarked) [Example 33, 8-chloro-7-fluoro-2-[2-(3-hydroxypropoxy)-4-(trifluoromethyl)phenyl]chroman-4-one] here?
Answer: The IC50 was 0.68 µM.

Question: With O=C(O)CCOc1cc(Br)ccc1[C@@H]1CC(=O)c2cccc(Cl)c2O1 [Example 16-A, 3-[5-bromo-2-[(2S)-8-chloro-4-oxo-chroman-2-yl]phenoxy]propanoic Acid] as the compound, how does the IC50 read?
Answer: The IC50 was 2.43 µM.

Question: With COc1cc(C2CC(=O)c3cccc(Cl)c3O2)c(OCCC(=O)O)cc1Cl (centres unmarked) [Example 10, 3-[5-chloro-2-(8-chloro-4-oxo-chroman-2-yl)-4-methoxy-phenoxy]propanoic Acid] as the compound, how does the IC50 read?
Answer: Its IC50 is 11.4 µM.

Question: For O=C(O)CCOc1cc2c(cc1C1CC(=O)c3cccc(Cl)c3O1)OCO2 (centres unmarked) [Example 12, 3-[[6-(8-chloro-4-oxo-chroman-2-yl)-1,3-benzodioxol-5-yl]oxy]propanoic Acid], which IC50 is on record?
Answer: The IC50 was 10.1 µM.

Question: O=C(O)COCCCOc1cc(C(F)(F)F)ccc1C1CC(=O)c2ccc(F)c(Cl)c2O1 (centres unmarked) [Example 24, 2-[3-[2-(8-chloro-7-fluoro-4-oxo-chroman-2-yl)-5-(trifluoromethyl)phenoxy]propoxy]acetic Acid] was tested. Which IC50 did it give?
Answer: Its IC50 is 7.14 µM.

Question: For COc1ccc2c(c1Cl)OC(c1ccc(C(F)(F)F)cc1OCCC(=O)O)CC2=O (centres unmarked) [Example 4, 3-[2-(8-chloro-7-methoxy-4-oxo-chroman-2-yl)-5-(trifluoromethyl)phenoxy]propanoic Acid], which IC50 is on record?
Answer: Its IC50 is 5.25 µM.

Question: With Cc1cc(C2CC(=O)c3cccc(Cl)c3O2)c(OC2CC(C(=O)O)C2)cc1Cl (centres unmarked) [Example 18, 3-[5-chloro-2-(8-chloro-4-oxo-chroman-2-yl)-4-methyl-phenoxy]cyclobutanecarboxylic Acid] as the compound, how does the IC50 read?
Answer: The IC50 was 0.765 µM.

Question: For O=C1CC(c2ccc(C(F)(F)F)cc2OC2CC(C(=O)O)C2)Oc2c(Cl)cccc21 (centres unmarked) [Example 17, 3-[2-(8-chloro-4-oxo-chroman-2-yl)-5-(trifluoromethyl)phenoxy]cyclobutanecarboxylic Acid], which IC50 is on record?
Answer: The IC50 was 1.56 µM.

Question: With NS(=O)(=O)N[C@H](COc1cc(C(F)(F)F)ccc1[C@@H]1CC(=O)c2cccc(Cl)c2O1)C(=O)O [Example 30-A, (2R)-3-[2-[(2S)-8-chloro-4-oxo-chroman-2-yl]-5-(trifluoromethyl)phenoxy]-2-(sulfamoylamino)propanoic Acid] as the compound, how does the IC50 read?
Answer: Its IC50 is 3.37 µM.

Question: With O=C1CC(c2ccc(C(F)(F)F)cc2OCCO)Oc2c1ccc(F)c2Cl (centres unmarked) [Example 34, 8-chloro-7-fluoro-2-[2-(2-hydroxyethoxy)-4-(trifluoromethyl)phenyl]chroman-4-one] as the compound, how does the IC50 read?
Answer: Its IC50 is 3.36 µM.

Question: How did the IC50 turn out when Cc1ccc(C2CC(=O)c3cccc(Cl)c3O2)c(OCCCOCC(=O)O)c1 (centres unmarked) [Example 22, 2-[3-[2-(8-chloro-4-oxo-chroman-2-yl)-5-methyl-phenoxy]propoxy]acetic Acid] was run?
Answer: The IC50 was 1.99 µM.

Question: For COc1cc(OCCC(=O)O)c(C2CC(=O)c3cccc(Cl)c3O2)cc1C (centres unmarked) [Example 9, 3-[2-(8-chloro-4-oxo-chroman-2-yl)-5-methoxy-4-methyl-phenoxy]propanoic Acid], which IC50 is on record?
Answer: Its IC50 is 9.41 µM.

Question: With CCS(=O)(=O)N[C@H](COc1cc(C(F)(F)F)ccc1C1CC(=O)c2cccc(Cl)c2O1)C(=O)OC (stereo partly drawn) [Example 27, Methyl (2R)-3-[2-(8-chloro-4-oxo-chroman-2-yl)-5-(trifluoromethyl)phenoxy]-2-(ethylsulfonylamino)propanoate] as the compound, how does the IC50 read?
Answer: Its IC50 is 0.58 µM.

Question: O=C(O)CCOc1cc(OC(F)(F)F)c(Br)cc1C1CC(=O)c2cccc(Cl)c2O1 (centres unmarked) [Example 15, 3-[4-bromo-2-(8-chloro-4-oxo-chroman-2-yl)-5-(trifluoromethoxy)phenoxy]propanoic Acid] was tested. Which IC50 did it give?
Answer: Its IC50 is 1.5 µM.

Question: For COCCCOc1cc(C(F)(F)F)ccc1C1CC(=O)c2ccc(F)c(Cl)c2O1 (centres unmarked) [Example 32, 8-chloro-7-fluoro-2-[2-(3-methoxypropoxy)-4-(trifluoromethyl)phenyl]chroman-4-one], which IC50 is on record?
Answer: The IC50 was 1.93 µM.

Question: With O=C(O)CCOc1cc(C(F)(F)F)ccc1C1CC(=O)c2c(O)ccc(Cl)c2O1 (centres unmarked) [Example 6, 3-[2-(8-chloro-5-hydroxy-4-oxo-chroman-2-yl)-5-(trifluoromethyl)phenoxy]propanoic Acid] as the compound, how does the IC50 read?
Answer: Its IC50 is 5.22 µM.

Question: Which IC50 does the source give for O=C(O)COCCOc1cc(C(F)(F)F)ccc1C1CC(=O)c2cccc(Cl)c2O1 (centres unmarked) [Example 21, 2-[2-[2-(8-chloro-4-oxo-chroman-2-yl)-5-(trifluoromethyl)phenoxy]ethoxy]acetic Acid] here?
Answer: Its IC50 is 4.89 µM.

Question: With CCNS(=O)(=O)N[C@H](COc1cc(C(F)(F)F)ccc1[C@@H]1CC(=O)c2cccc(Cl)c2O1)C(=O)O [Example 31-A, (2R)-3-[2-[(2S)-8-chloro-4-oxo-chroman-2-yl]-5-(trifluoromethyl)phenoxy]-2-(ethylsulfamoylamino)propanoic acid] as the compound, how does the IC50 read?
Answer: The IC50 was 3.3 µM.

Question: NS(=O)(=O)N[C@H](COc1cc(C(F)(F)F)ccc1[C@H]1CC(=O)c2cccc(Cl)c2O1)C(=O)O [Example 30-B, (2R)-3-[2-[(2R)-8-chloro-4-oxo-chroman-2-yl]-5-(trifluoromethyl)phenoxy]-2-(sulfamoylamino)propanoic Acid] was tested. Which IC50 did it give?
Answer: The IC50 was 10.7 µM.

Question: How did the IC50 turn out when O=C(O)COc1cc(C(F)(F)F)ccc1C1CC(=O)c2ccc(F)c(Cl)c2O1 (centres unmarked) [Example 26, 2-[2-(8-chloro-7-fluoro-4-oxo-chroman-2-yl)-5-(trifluoromethyl)phenoxy]acetic Acid] was run?
Answer: Its IC50 is 2.78 µM.
